Measurements from ChEMBL document CHEMBL1240303, “Inhibiting transcription of chromosomal DNA with antigene peptide nucleic acids” (2005).
Activity calls are given as the source filed them. The rule behind the calls is not given here.

Columns and labels:
T47D [1] = experiment: Induction of morphology changes in human T47D cells expressing human progesterone receptor assessed as increase in cell height by confocal microscopy; format: functional, cell-based
T47D [2] = experiment: Reduction in cell proliferation of human T47D cells expressing human progesterone receptor by FACS method; format: functional, cell-based
T47D [3] = experiment: Inhibition of human progesterone receptor B protein expression transfected in human T47D cells at 200 nM by Western blot; format: functional
T47D [4] = experiment: Inhibition of human progesterone receptor A protein expression transfected in human T47D cells at 200 nM by Western blot; format: functional
T47D [5] = experiment: Increase in Ezrin mRNA expression in human T47D cells expressing human progesterone receptor by RT-PCR relative to untreated control; format: functional

Compound: Cc1cn([C@H]2C[C@H](OP(=O)(O)OC[C@H]3O[C@@H](n4cc(C)c(=O)[nH]c4=O)C[C@@H]3O)[C@@H](COP(=O)(O)O[C@H]3[C@@H](O)[C@H](n4ccc(=O)[nH]c4=O)O[C@@H]3COP(=O)(O)O[C@H]3[C@@H](O)[C@H](n4ccc(N)nc4=O)O[C@@H]3COP(=O)(O)O[C@H]3[C@@H](O)[C@H](n4cnc5c(N)ncnc54)O[C@@H]3COP(=O)(O)O[C@H]3C[C@H](n4cnc5c(N)ncnc54)O[C@@H]3COP(=O)(O)O[C@H]3[C@@H](O)[C@H](n4ccc(N)nc4=O)O[C@@H]3COP(=O)(O)O[C@H]3C[C@H](n4cnc5c(N)ncnc54)O[C@@H]3COP(=O)(O)O[C@H]3[C@@H](O)[C@H](N4CC=C(N)NC4=O)O[C@@H]3COP(=O)(O)O[C@H]3[C@@H](O)[C@H](n4cnc5c(=O)[nH]c(N)nc54)O[C@@H]3COP(=O)(O)O[C@H]3[C@@H](O)[C@H](n4cnc5c(N)ncnc54)O[C@@H]3COP(=O)(O)O[C@H]3[C@@H](O)[C@H](N4CC=C(N)NC4=O)O[C@@H]3COP(=O)(O)O[C@H]3[C@@H](O)[C@H](n4cnc5c(=O)[nH]c(N)nc54)O[C@@H]3COP(=O)(O)O[C@H]3[C@@H](O)[C@H](n4cnc5c(=O)[nH]c(N)nc54)O[C@@H]3COP(=O)(O)O[C@H]3[C@@H](O)[C@H](n4cnc5c(=O)[nH]c(N)nc54)O[C@@H]3COP(=O)(O)O[C@H]3C[C@H](n4cnc5c(N)ncnc54)O[C@@H]3COP(=O)(O)O[C@H]3[C@@H](O)[C@H](n4cnc5c(N)ncnc54)O[C@@H]3COP(=O)(O)O[C@H]3[C@@H](O)[C@H](n4cnc5c(=O)[nH]c(N)nc54)O[C@@H]3COP(=O)(O)O[C@H]3[C@@H](O)[C@H](n4cnc5c(=O)[nH]c(N)nc54)O[C@@H]3COP(=O)(O)O[C@H]3[C@@H](O)[C@H](n4ccc(=O)[nH]c4=O)O[C@@H]3COP(=O)(O)O[C@H]3[C@@H](O)[C@H](n4cnc5c(N)ncnc54)O[C@@H]3CO)O2)c(=O)[nH]c1=O
- Activity (T47D [1]): Active
- Activity (T47D [2]): Active

Compound: Cc1cn(CC(=O)N(CCNC(=O)CN(CCNC(=O)CN(CCNC(=O)CN(CCNC(=O)CN(CCNC(=O)CN(CCNC(=O)CN(CCNC(=O)CNC(=O)[C@@H](N)CCCCN)C(=O)Cn2c(N)ccnc2=O)C(=O)Cn2cnc3c(N)ncnc32)C(=O)Cn2c(N)ccnc2=O)C(=O)Cn2cnc3nc(N)[nH]c(=O)c32)C(=O)Cn2cnc3c(N)ncnc32)C(=O)Cn2cc(C)c(=O)[nH]c2=O)CC(=O)NCCN(CC(=O)NCCN(CC(=O)NCCN(CC(=O)NCCN(CC(=O)NCCN(C(=O)CNCCN(CC(=O)NCCN(CC(=O)NCCN(CC(=O)NCCN(CC(=O)NCCN(CC(=O)NCCN(CC(=O)NCCN(CC(=O)N[C@@H](CCCCN)C(=O)O)C(=O)Cn2cc(C)c(=O)[nH]c2=O)C(=O)Cn2cc(C)c(=O)[nH]c2=O)C(=O)Cn2cc(C)c(=O)[nH]c2=O)C(=O)Cn2cnc3nc(N)[nH]c(=O)c32)C(=O)Cn2cc(C)c(=O)[nH]c2=O)C(=O)Cn2cnc3c(N)ncnc32)C(=O)Cn2c(N)ccnc2=O)C(=O)Cn2cnc3nc(N)[nH]c(=O)c32)C(=O)Cn2cc(C)c(=O)[nH]c2=O)C(=O)Cn2c(N)ccnc2=O)C(=O)Cn2cc(C)c(=O)[nH]c2=O)C(=O)Cn2cc(C)c(=O)[nH]c2=O)c(=O)[nH]c1=O
- Activity (T47D [1]): inactive
- inhibition (T47D [3]): inactive
- inhibition (T47D [4]): inactive
- Activity (T47D [2]): inactive

Compound: Cc1cn([C@@H]2O[C@H](COP(=O)(O)O[C@H]3[C@@H](O)[C@H](n4cnc5c(=O)[nH]c(N)nc54)O[C@@H]3COP(=O)(O)O[C@H]3[C@@H](O)[C@H](n4ccc(=O)[nH]c4=O)O[C@@H]3COP(=O)(O)O[C@H]3C[C@H](n4cnc5c(N)ncnc54)O[C@@H]3COP(=O)(O)O[C@H]3[C@@H](O)[C@H](N4CC=C(N)NC4=O)O[C@@H]3COP(=O)(O)O[C@H]3[C@@H](O)[C@H](n4ccc(=O)[nH]c4=O)O[C@@H]3COP(=O)(O)O[C@H]3[C@@H](O)[C@H](N4CC=C(N)NC4=O)O[C@@H]3COP(=O)(O)O[C@H]3C[C@H](n4cnc5c(=O)[nH]c(N)nc54)O[C@@H]3COP(=O)(O)O[C@H]3[C@@H](O)[C@H](n4ccc(N)nc4=O)O[C@@H]3COP(=O)(O)O[C@H]3[C@@H](O)[C@H](n4ccc(N)nc4=O)O[C@@H]3COP(=O)(O)O[C@H]3[C@@H](O)[C@H](n4ccc(N)nc4=O)O[C@@H]3COP(=O)(O)O[C@H]3[C@@H](O)[C@H](n4ccc(N)nc4=O)O[C@@H]3COP(=O)(O)O[C@H]3[C@@H](O)[C@H](n4ccc(=O)[nH]c4=O)O[C@@H]3COP(=O)(O)O[C@H]3[C@@H](O)[C@H](n4cnc5c(=O)[nH]c(N)nc54)O[C@@H]3COP(=O)(O)O[C@H]3[C@@H](O)[C@H](n4ccc(=O)[nH]c4=O)O[C@@H]3COP(=O)(O)O[C@H]3C[C@H](n4ccc(=O)[nH]c4=O)O[C@@H]3COP(=O)(O)O[C@H]3[C@@H](O)[C@H](n4cnc5c(=O)[nH]c(N)nc54)O[C@@H]3COP(=O)(O)O[C@H]3[C@@H](O)[C@H](n4ccc(=O)[nH]c4=O)O[C@@H]3COP(=O)(O)O[C@H]3[C@@H](O)[C@H](n4cnc5c(=O)[nH]c(N)nc54)O[C@@H]3COP(=O)(O)O[C@H]3[C@@H](O)[C@H](n4cnc5c(=O)[nH]c(N)nc54)O[C@@H]3CO)[C@@H](OP(=O)(O)OC[C@H]3O[C@@H](n4cc(C)c(=O)[nH]c4=O)C[C@@H]3O)[C@H]2O)c(=O)[nH]c1=O
- Activity (T47D [1]): Active
- Activity (T47D [2]): Active
- fold change (FC) (T47D [5]): 5.5

Compound: Cc1cn(CC(=O)N(CCNCC(=O)N(CCNC(=O)CN(CCNC(=O)CN(CCNC(=O)CN(CCNC(=O)CN(CCNC(=O)CN(CCNC(=O)CN(CCNC(=O)CN(CCNC(=O)CN(CCNC(=O)CN(CCNC(=O)CN(CCNC(=O)CN(CCNC(=O)CNC(=O)[C@@H](N)CCCCN)C(=O)Cn2cc(C)c(=O)[nH]c2=O)C(=O)Cn2cnc3nc(N)[nH]c(=O)c32)C(=O)Cn2c(N)ccnc2=O)C(=O)Cn2c(N)ccnc2=O)C(=O)Cn2c(N)ccnc2=O)C(=O)Cn2c(N)ccnc2=O)C(=O)Cn2c(N)ccnc2=O)C(=O)Cn2cnc3c(N)ncnc32)C(=O)Cn2cnc3nc(N)[nH]c(=O)c32)C(=O)Cn2cnc3c(N)ncnc32)C(=O)Cn2c(N)ccnc2=O)C(=O)Cn2cnc3c(N)ncnc32)CC(=O)NCCN(CC(=O)NCCN(CC(=O)NCCN(CC(=O)NCCN(CC(=O)NCCN(CC(=O)NCCN(CC(=O)N[C@@H](CCCCN)C(=O)O)C(=O)Cn2c(N)ccnc2=O)C(=O)Cn2cnc3nc(N)[nH]c(=O)c32)C(=O)Cn2cnc3nc(N)[nH]c(=O)c32)C(=O)Cn2cc(C)c(=O)[nH]c2=O)C(=O)Cn2c(N)ccnc2=O)C(=O)Cn2cnc3nc(N)[nH]c(=O)c32)c(=O)[nH]c1=O
- inhibition (T47D [3]): inactive
- inhibition (T47D [4]): inactive
